{
  "source": "patent US5364861A",
  "about": "“Optical isomers of 7-[3-(1,1-dialkylmethyl-1-amino-1-pyrrolidinyl]-quinolones and naphthyridones as antibacterial agents” (Warner-Lambert Company, priority 1993, dated 1994)",
  "key": {"Esch. coli Vogel [1]": {"system": "Esch. coli Vogel", "experiment": "in vitro antibacterial activity, microtitration dilution (MIC), Esch. coli Vogel", "format": "cell-based", "details": "Escherichia coli, read-out: minimum inhibiting concentration (MIC)", "text": "(§1) The in vitro antibacterial activity is obtained when tested by the microtitration dilution method as described in Heifetz, et al., Antimicr. Agents & Chemother. 1974;6:124, which is incorporated herein by reference.\n(§2) By use of the above methods, the following minimum inhibiting concentration values (MICs in μg/ml), PD50 's in mg/kg, no effect phototoxicity dose in mg/kg and the cytotoxicity IC50 in μg/mL were obtained for representative enantiomers of the invention and compounds of the prior art as shown in the table."}, "Strep. pyogenes C-203 [2]": {"system": "Strep. pyogenes C-203", "experiment": "in vitro antibacterial activity, microtitration dilution (MIC), Strep. pyogenes C-203", "format": "cell-based", "details": "Streptococcus pyogenes, C203, read-out: minimum inhibiting concentration (MIC)", "text": "as §1, §2"}, "Strep. pyogenes C-203 [3]": {"system": "Strep. pyogenes C-203", "experiment": "median protective dose in mice given lethal systemic infection, Strep. pyogenes", "format": "in vivo", "details": "Streptococcus pyogenes, C203, Strep. pyogenes, single dose at time of challenge, route not given, read-out: median protective dose (PD50)", "protocol": "(§3) The in vivo activity is obtained when the compounds are tested according to the procedure of Miller, et al (Proc. Soc. Exp. Biol. Med. 1944;57:261). The median protective dose (PD50) was determined in mice given lethal systemic infections. Single doses of compound were given at time of challenge.\nas §2\n(§4) The in vivo data as PD50 's are reported below the line of MICs for the same compound."}, "Pseud. aeruginosa UI-18 [4]": {"system": "Pseud. aeruginosa UI-18", "experiment": "in vitro antibacterial activity, microtitration dilution (MIC), Pseud. aeruginosa UI-18", "format": "cell-based", "details": "Pseudomonas aeruginosa, UI18, read-out: minimum inhibiting concentration (MIC)", "text": "as §1, §2"}, "Pseud. aeruginosa UI-18 [5]": {"system": "Pseud. aeruginosa UI-18", "experiment": "median protective dose in mice given lethal systemic infection, Pseud. aeruginosa", "format": "in vivo", "details": "Pseudomonas aeruginosa, UI18, Pseud. aeruginosa, single dose at time of challenge, route not given, read-out: median protective dose (PD50)", "protocol": "as §3, §2, §4"}, "Staph. aureus UC-76": {"system": "Staph. aureus UC-76", "experiment": "in vitro antibacterial activity, microtitration dilution (MIC), Staph. aureus UC-76", "format": "cell-based", "details": "Staphylococcus aureus, UC76, read-out: minimum inhibiting concentration (MIC)", "text": "as §1, §2"}, "Esch. coli Vogel [6]": {"system": "Esch. coli Vogel", "experiment": "median protective dose in mice given lethal systemic infection, Esch. coli", "format": "in vivo", "details": "Escherichia coli, single dose at time of challenge, route not given, read-out: median protective dose (PD50)", "protocol": "as §3, §2, §4"}, "Strep. faecalis MGH-2": {"system": "Strep. faecalis MGH-2", "experiment": "in vitro antibacterial activity, microtitration dilution (MIC), Strep. faecalis MGH-2", "format": "cell-based", "details": "Enterococcus faecalis, MGH2, read-out: minimum inhibiting concentration (MIC)", "text": "as §1, §2"}, "Strep. pneumoniae SV-1 [7]": {"system": "Strep. pneumoniae SV-1", "experiment": "in vitro antibacterial activity, microtitration dilution (MIC), Strep. pneumoniae SV-1", "format": "cell-based", "details": "Streptococcus pneumoniae, SV1, read-out: minimum inhibiting concentration (MIC)", "text": "as §1, §2"}, "in vivo": {"experiment": "in vivo", "parameters": "species or system mice", "details": "mouse, po", "protocol": "The phototoxicity data is obtained using depilated mice. Compound was administered orally each day for four successive days, followed each day by 3 hours of […] radiation. The mice were examined for any positive signs (redness, erythema) relative to control animals. The no effect dose and the 50% effect dose were determined. By use of the above methods, the following minimum inhibiting concentration values (MICs in μg/ml), PD50 's in mg/kg, no effect phototoxicity dose in mg/kg and the cytotoxicity IC50 in μg/mL were obtained for representative enantiomers of the invention and compounds of the prior art as shown in the table."}, "Ent. cloacae MA2646": {"system": "Ent. cloacae MA2646", "experiment": "in vitro antibacterial activity, microtitration dilution (MIC), Ent. cloacae MA2646", "format": "cell-based", "details": "Enterobacter cloacae, read-out: minimum inhibiting concentration (MIC)", "text": "as §1, §2"}, "Staph. aureus H 228": {"system": "Staph. aureus H 228", "experiment": "in vitro antibacterial activity, microtitration dilution (MIC), Staph. aureus H 228", "format": "cell-based", "details": "Staphylococcus aureus, H228, read-out: minimum inhibiting concentration (MIC)", "text": "as §1, §2"}, "Klebs. pneumoniae MGH-2": {"system": "Klebs. pneumoniae MGH-2", "experiment": "in vitro antibacterial activity, microtitration dilution (MIC), Klebs. pneumoniae MGH-2", "format": "cell-based", "details": "Klebsiella pneumoniae, MGH2, read-out: minimum inhibiting concentration (MIC)", "text": "as §1, §2"}, "Strep. pneumoniae SV-1 [8]": {"system": "Strep. pneumoniae SV-1", "experiment": "median protective dose in mice given lethal systemic infection, Strep. pneumoniae", "format": "in vivo", "details": "Streptococcus pneumoniae, SV1, Strep. pneumoniae, single dose at time of challenge, route not given, read-out: median protective dose (PD50)", "protocol": "as §3, §2, §4"}, "Prot. rettgeri M 1771": {"system": "Prot. rettgeri M 1771", "experiment": "in vitro antibacterial activity, microtitration dilution (MIC), Prot. rettgeri M 1771", "format": "cell-based", "details": "Providencia rettgeri, M1771, read-out: minimum inhibiting concentration (MIC)", "text": "as §1, §2"}, "[9]": {"experiment": "cytotoxicity, colony reduction of hamster V-79 cells", "format": "cell-based", "details": "3 hours treatment, colonies counted after 5 days, read-out: cytotoxicity IC50 (Cytotox)", "protocol": "The cytotoxicity data is obtained using hamster V-79 cells. The cells were suspended in tissue culture medium and grown overnight. Cells were treated with drug for 3 hours, washed free of drug and then replated, and the colonies counted after 5 days. The concentration of drug that reduced colonies by 50% relative to control was recorded.\nas §2"}},
  "note": "Read-outs that look alike come from different tables or passages of the source.",
  "data": [
    {"smiles": "CC(C)(N)[C@@H]1CCN(c2nc3c(cc2F)c(=O)c(C(=O)O)cn3C2CC2)C1", "note": "[Example 4]", "values": [
      {"measurement": "MIC", "setting": "Esch. coli Vogel [1]", "value": 0.05, "unit": "µg/mL"},
      {"measurement": "MIC", "setting": "Strep. pyogenes C-203 [2]", "value": 0.013, "unit": "µg/mL"},
      {"measurement": "ED50", "setting": "Strep. pyogenes C-203 [3]; first line below the MICs", "value": 4, "unit": "mg/kg"},
      {"measurement": "ED50", "setting": "Strep. pyogenes C-203 [3]; second line below the MICs", "value": 1, "unit": "mg/kg"},
      {"measurement": "MIC", "setting": "Pseud. aeruginosa UI-18 [4]", "value": 1.6, "unit": "µg/mL"},
      {"measurement": "ED50", "setting": "Pseud. aeruginosa UI-18 [5]; first line below the MICs", "value": 50, "unit": "mg/kg"},
      {"measurement": "ED50", "setting": "Pseud. aeruginosa UI-18 [5]; second line below the MICs", "value": 22, "unit": "mg/kg"},
      {"measurement": "MIC", "setting": "Staph. aureus UC-76", "value": 0.003, "unit": "µg/mL"},
      {"measurement": "ED50", "setting": "Esch. coli Vogel [6]; first line below the MICs", "value": 5, "unit": "mg/kg"},
      {"measurement": "ED50", "setting": "Esch. coli Vogel [6]; second line below the MICs", "value": 1, "unit": "mg/kg"},
      {"measurement": "MIC", "setting": "Strep. faecalis MGH-2", "value": 0.05, "unit": "µg/mL"},
      {"measurement": "MIC", "setting": "Strep. pneumoniae SV-1 [7]", "value": 0.006, "unit": "µg/mL"},
      {"measurement": "NOAEL", "setting": "in vivo", "value": 30, "unit": "mg/kg"},
      {"measurement": "MIC", "setting": "Ent. cloacae MA2646", "value": 0.1, "unit": "µg/mL"},
      {"measurement": "MIC", "setting": "Staph. aureus H 228", "value": 0.05, "unit": "µg/mL"},
      {"measurement": "MIC", "setting": "Klebs. pneumoniae MGH-2", "value": 0.2, "unit": "µg/mL"},
      {"measurement": "ED50", "setting": "Strep. pneumoniae SV-1 [8]; first line below the MICs", "value": 5, "unit": "mg/kg"},
      {"measurement": "ED50", "setting": "Strep. pneumoniae SV-1 [8]; second line below the MICs", "value": 2, "unit": "mg/kg"},
      {"measurement": "MIC", "setting": "Prot. rettgeri M 1771", "value": 0.4, "unit": "µg/mL"},
      {"measurement": "CC50 at 3 h", "setting": "[9]", "value": 130, "unit": "µg/mL"}
    ]}
  ]
}
